Results reported in patent publication US20100132057A1, “GENETICALLY MODIFIED ANIMAL FOR USE IN EVALUATING HARMFULNESS OF TEST SUBSTANCE” (priority 2008, published 2010).

How the values were obtained:
[1] = tested on: reporter (luciferase) gene under AhR-binding enhancer of the TH gene and TH gene promoter in primary neuronal cells; assay: Luciferase luminescence in primary neuronal cells isolated from genetically modified mouse during exposure to TCDD; assay type: cell-based; conditions: 24 hours, FIG. 9; for increase in the degree of luminescence from the unexposed case: primary neuronal cells of mouse #176 embryos (E12)
Description: Another embodiment of the invention is directed to a method that includes isolating primary neuronal cells from the genetically modified mouse, exposing the primary neuronal cells to a test substance, and then measuring the expression of the reporter gene in the cells to evaluate the effect of the test substance on the central nervous system. When the reporter gene is a firefly luciferase gene, the method may include isolating primary neuronal cells from the genetically modified mouse, exposing the primary neuronal cells to a test substance, collecting the cells to extract proteins therefrom 2 to 72 hours after the exposure, adding luciferin, a substrate for the luciferase, to the liquid extract, and measuring luminescence derived from the enzyme activity of the luciferase with a luminometer.
The genetically modified mouse #176 (hetero, male) was mated with a wild-type mouse, and 12 days after the observation of the plug, the brain was removed from the embryo (E12: an embryonic age of 12 days) under a sterile environment. All the removed embryonic brains were collected, and 0.25% trypsin was added thereto and incubated at 37° C. for 15 minutes. The trypsin was removed. After washed tree times with the Hank's solution, the cells were suspended in a serum-containing DF 1:1 medium (Dulbecco-F12 equal-ratio mixture medium+10% fetal bovine serum). […]
[…] The resulting extracted protein solution was used in the measurement of luciferase luminescence. In the luciferase luminescence measurement, 100 μl of an assay solution (PicaGene Assay Kit, Toyo B-Net Co., Ltd.) was added to 10 μl of the collected protein solution and stirred, and immediately after the stirring, the degree of luminescence per 2 minutes was measured with a luminometer LB-940 (Berthold). The resulting degree of luminescence was divided by the total protein amount of the protein solution so that it was converted into a relative luminescence intensity (RLU/min/μg protein). The total protein amount of the solution was measured with a protein assay kit (Bio-Rad).

[2] = tested on: reporter (luciferase) gene under AhR-binding enhancer of the TH gene and TH gene promoter; assay: Luciferase luminescence in genetically modified mouse during exposure to βNF (IVIS imaging); assay type: in vivo
Method: When the reporter gene is a firefly luciferase gene, the method may include administering luciferin, a substrate for the luciferase, by intraperitoneal injection to the genetically modified mouse 6 to 72 hours after the administration of the test substance to the genetically modified mouse and measuring luminescence derived from the individual or derived from the enzyme activity of the luciferase in the brain with a luminescence measurement system such as an In-Vivo Imaging System (IVIS), manufactured by Xenogen Corporation.
A dioxin analog, β-naphthoflavone (βNF), was used as a test substance. A solution of βNF in corn oil was intraperitoneally injected at a βNF dose of 40 mg/kg into each of the genetically modified mice #176 (4 weeks old), #177 (6 weeks old) and #184 (6 weeks old) in the T1 generation. The same amount of corn oil as the amount of the solution in the βNF-administered group was intraperitoneally administered to each of the control group mice (the genetically modified mice in the T1 generation). […] After 5 minutes, an In-Vivo Imaging System (IVIS 100-series), manufactured by Xenogen Corporation, was used to detect luciferase luminescence in the mice. […] In addition, the brain of the genetically modified mouse #176 was cut in the vicinity of the midbrain, and luminescence from the cut section was measured with the IVIS System.

## Clc1cc2c(cc1Cl)Oc1cc(Cl)c(Cl)cc1O2 [TCDD, 2,3,7,8-tetrachlorodibenzo-p-dioxin]
[1]; TCDD 0, 0.1 or 10 ng/ml, primary neuronal cells of mouse #176 embryos
  change in the degree of luminescence with TCDD concentration: TCDD concentration-dependent increase in the degree of luminescence
[1]; exposure to 0.1 nM TCDD
  increase in the degree of luminescence from the unexposed case: 1.3 times
[1]; exposure to 10 ng/ml TCDD
  increase in the degree of luminescence from the unexposed case: 3.1 times

## O=c1cc(-c2ccccc2)oc2ccc3ccccc3c12 [βNF, β-naphthoflavone]
[2]; genetically modified mice #176, #177, #184 (T1 generation), βNF 40 mg/kg intraperitoneal in corn oil, 72 hours after administration, whole-body IVIS, FIG. 6
  luciferase luminescence in the mice: luciferase luminescence was observed in all the genetically modified mice
[2]; genetically modified mouse #176, βNF 40 mg/kg intraperitoneal, brain cut in the vicinity of the midbrain, IVIS, FIG. 7
  degree of luminescence from cut brain section: an increase in the degree of luminescence was detected in the vicinity of the midbrain or hippocampus
